Reference: ChEMBL document CHEMBL4304804, “Synthesis and biological evaluation of calycanthaceous alkaloid analogs” (Bioorg Med Chem, 2019)
In brackets after ≈: the same amount, converted by molar mass. Activity calls are given as the source filed them. No cut-off for these calls is given here.

Legend:
Bacillus cereus = test: Antibacterial activity against Bacillus cereus assessed as reduction in bacterial cell growth incubated for 24 hrs by filter paper assay; format: functional
Aspergillus niger = test: Antifungal activity against Aspergillus niger assessed as reduction in fungal cell growth incubated for 48 hrs by serial dilution method; format: functional
Verticillium dahliae = test: Antifungal activity against Verticillium dahliae assessed as reduction in fungal cell growth incubated for 48 hrs by serial dilution method; format: functional
Pseudomonas aeruginosa = test: Antibacterial activity against Pseudomonas aeruginosa assessed as reduction in bacterial cell growth incubated for 24 hrs by filter paper assay; format: functional
Aspergillus flavus = test: Antifungal activity against Aspergillus flavus assessed as reduction in fungal cell growth incubated for 48 hrs by serial dilution method; format: functional
[1] = tested on: Fusarium oxysporum f. sp. vasinfectum; test: Antifungal activity against Fusarium oxysporum sp. vasinfectum assessed as reduction in fungal cell growth incubated for 48 hrs by serial dilution method; format: functional
Cytospora = test: Antifungal activity against Cytospora juglandis assessed as reduction in fungal cell growth incubated for 48 hrs by serial dilution method; format: functional
Curvularia lunata = test: Antifungal activity against Curvularia lunata assessed as reduction in fungal cell growth incubated for 48 hrs by serial dilution method; format: functional
Candida = test: Antifungal activity against […] assessed as reduction in fungal cell growth incubated for 48 hrs by serial dilution method; format: functional
Acetylcholinesterase = Acetylcholinesterase (Electrophorus electricus, UniProt O42275); test: Inhibition of electric eel AChE by Ellman's colorimetry
Chain of Acetylcholinesterase (O42275 whole entry): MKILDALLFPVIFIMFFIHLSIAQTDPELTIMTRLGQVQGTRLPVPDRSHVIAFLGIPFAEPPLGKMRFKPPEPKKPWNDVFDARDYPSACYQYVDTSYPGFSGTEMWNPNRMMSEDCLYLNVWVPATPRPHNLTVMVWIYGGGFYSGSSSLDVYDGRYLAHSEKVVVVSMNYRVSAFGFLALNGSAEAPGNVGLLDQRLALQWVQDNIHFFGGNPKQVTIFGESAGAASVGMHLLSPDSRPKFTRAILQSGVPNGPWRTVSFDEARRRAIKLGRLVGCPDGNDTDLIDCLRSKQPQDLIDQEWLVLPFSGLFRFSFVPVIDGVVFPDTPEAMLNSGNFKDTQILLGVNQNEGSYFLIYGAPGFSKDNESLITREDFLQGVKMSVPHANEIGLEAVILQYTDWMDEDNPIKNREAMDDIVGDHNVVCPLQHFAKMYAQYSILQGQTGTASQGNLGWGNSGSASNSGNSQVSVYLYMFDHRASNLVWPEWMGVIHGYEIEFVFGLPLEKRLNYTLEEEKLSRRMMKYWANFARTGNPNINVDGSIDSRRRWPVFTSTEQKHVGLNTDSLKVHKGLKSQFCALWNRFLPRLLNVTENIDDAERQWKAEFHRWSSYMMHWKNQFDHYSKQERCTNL

Escherichia coli = test: Antibacterial activity against Escherichia coli assessed as reduction in bacterial cell growth incubated for 24 hrs by filter paper assay; format: functional
[2] = tested on: Colletotrichum orbiculare; test: Antifungal activity against Colletotrichum orbiculare assessed as reduction in fungal cell growth incubated for 48 hrs by serial dilution method; format: functional
Ralstonia solanacearum = test: Antibacterial activity against Ralstonia solanacearum assessed as reduction in bacterial cell growth incubated for 24 hrs by filter paper assay; format: functional
Cryptococcus neoformans = test: Antifungal activity against Cryptococcus neoformans assessed as reduction in fungal cell growth incubated for 48 hrs by serial dilution method; format: functional
Penicillium citrinum = test: Antifungal activity against Penicillium citrinum assessed as reduction in fungal cell growth incubated for 48 hrs by serial dilution method; format: functional
Fusarium oxysporum = test: Antifungal activity against Fusarium oxysporum assessed as reduction in fungal cell growth incubated for 48 hrs by serial dilution method; format: functional
Staphylococcus aureus = test: Antibacterial activity against Staphylococcus aureus assessed as reduction in bacterial cell growth incubated for 24 hrs by filter paper assay; format: functional
Candida tropicalis = test: Antifungal activity against Candida tropicalis assessed as reduction in fungal cell growth incubated for 48 hrs by serial dilution method; format: functional

SMILES	MIC (Bacillus cereus)	MIC (Aspergillus niger)	MIC (Verticillium dahliae)	MIC (Pseudomonas aeruginosa)	MIC (Aspergillus flavus)	MIC [1]	MIC (Cytospora)	MIC (Curvularia lunata)	MIC (Candida)	IC50 (Acetylcholinesterase) [µM]	MIC (Escherichia coli)	MIC [2]	MIC (Ralstonia solanacearum)	MIC (Cryptococcus neoformans)	MIC (Penicillium citrinum)	MIC (Fusarium oxysporum)	MIC (Staphylococcus aureus)	MIC (Candida tropicalis)
Cc1ccc(S(=O)(=O)N2CCC3(Cc4cccc(C)c4)c4ccccc4N(Cc4cccc(C)c4)C23)cc1 (stereo not given)	125 µg/mL (≈ 239 µM)	250 µg/mL (≈ 478 µM)	62.5 µg/mL (≈ 120 µM)	inactive	250 µg/mL (≈ 478 µM)	125 µg/mL (≈ 239 µM)	250 µg/mL (≈ 478 µM)	inactive	250 µg/mL (≈ 478 µM)	12.8	inactive	250 µg/mL (≈ 478 µM)	inactive	inactive	inactive	250 µg/mL (≈ 478 µM)	inactive	inactive
CCCCCCC(=O)N1CCC2(Cc3cccc(C)c3)c3ccccc3N(Cc3cccc(C)c3)C12 (stereo not given)	125 µg/mL (≈ 260 µM)	250 µg/mL (≈ 520 µM)	125 µg/mL (≈ 260 µM)	125 µg/mL (≈ 260 µM)	250 µg/mL (≈ 520 µM)	250 µg/mL (≈ 520 µM)	62.5 µg/mL (≈ 130 µM)	62.5 µg/mL (≈ 130 µM)	250 µg/mL (≈ 520 µM)	18.2	250 µg/mL (≈ 520 µM)	250 µg/mL (≈ 520 µM)	125 µg/mL (≈ 260 µM)	inactive	250 µg/mL (≈ 520 µM)	125 µg/mL (≈ 260 µM)	250 µg/mL (≈ 520 µM)	250 µg/mL (≈ 520 µM)
Cc1cccc(CN2c3ccccc3C3(Cc4cccc(C)c4)CCN(C(=O)COc4ccccc4)C23)c1 (stereo not given)	250 µg/mL (≈ 497 µM)	250 µg/mL (≈ 497 µM)	250 µg/mL (≈ 497 µM)	inactive	250 µg/mL (≈ 497 µM)	250 µg/mL (≈ 497 µM)	125 µg/mL (≈ 249 µM)	inactive	250 µg/mL (≈ 497 µM)	6.25	inactive	250 µg/mL (≈ 497 µM)	inactive	inactive	250 µg/mL (≈ 497 µM)	250 µg/mL (≈ 497 µM)	inactive	125 µg/mL (≈ 249 µM)
Cc1cccc(CN2c3ccccc3C3(Cc4cccc(C)c4)CCN(C(=O)Cc4ccccc4)C23)c1 (stereo not given)	inactive	250 µg/mL (≈ 514 µM)	250 µg/mL (≈ 514 µM)	inactive	250 µg/mL (≈ 514 µM)	125 µg/mL (≈ 257 µM)	250 µg/mL (≈ 514 µM)	inactive	inactive	453	inactive	inactive	inactive	inactive	250 µg/mL (≈ 514 µM)	250 µg/mL (≈ 514 µM)	inactive	inactive
CC(=O)N1CCCC2(O)c3ccccc3N(C)C12 (stereo not given)	inactive	inactive	inactive	250 µg/mL (≈ 1010 µM)	inactive	inactive	inactive	inactive	inactive	1.22	inactive	inactive	250 µg/mL (≈ 1010 µM)	inactive	inactive	inactive	250 µg/mL (≈ 1010 µM)	inactive
COc1ccc(C(=O)N2CCC3(Cc4ccccc4C)c4ccccc4N(Cc4ccccc4C)C23)cc1 (stereo not given)	inactive	250 µg/mL (≈ 497 µM)	250 µg/mL (≈ 497 µM)	inactive	250 µg/mL (≈ 497 µM)	inactive	250 µg/mL (≈ 497 µM)	inactive	inactive	126	inactive	inactive	inactive	inactive	inactive	250 µg/mL (≈ 497 µM)	inactive	inactive
Cc1cccc(CN2c3ccccc3C3(Cc4cccc(C)c4)CCN(C(=O)c4ccccc4C)C23)c1 (stereo not given)	125 µg/mL (≈ 257 µM)	250 µg/mL (≈ 514 µM)	7.81 µg/mL (≈ 16 µM)	inactive	250 µg/mL (≈ 514 µM)	125 µg/mL (≈ 257 µM)	125 µg/mL (≈ 257 µM)	62.5 µg/mL (≈ 128 µM)	250 µg/mL (≈ 514 µM)	112	inactive	250 µg/mL (≈ 514 µM)	125 µg/mL (≈ 257 µM)	inactive	inactive	125 µg/mL (≈ 257 µM)	inactive	250 µg/mL (≈ 514 µM)
CCCC(=O)N1CCCC2(O)c3ccccc3N(C)C12 (stereo not given)	inactive	inactive	250 µg/mL (≈ 911 µM)	250 µg/mL (≈ 911 µM)	inactive	inactive	inactive	inactive	inactive	122	inactive	inactive	31.2 µg/mL (≈ 114 µM)	inactive	inactive	inactive	inactive	inactive
Cc1ccccc1CN1c2ccccc2C2(Cc3ccccc3C)CCN(C(=O)c3ccccc3C)C12 (stereo not given)	250 µg/mL (≈ 514 µM)	125 µg/mL (≈ 257 µM)	250 µg/mL (≈ 514 µM)	inactive	250 µg/mL (≈ 514 µM)	250 µg/mL (≈ 514 µM)	250 µg/mL (≈ 514 µM)	62.5 µg/mL (≈ 128 µM)	250 µg/mL (≈ 514 µM)	229	inactive	inactive	125 µg/mL (≈ 257 µM)	inactive	250 µg/mL (≈ 514 µM)	250 µg/mL (≈ 514 µM)	250 µg/mL (≈ 514 µM)	250 µg/mL (≈ 514 µM)
Cc1cccc(CN2c3ccccc3C3(Cc4cccc(C)c4)CCN(C(=O)CCc4ccccc4)C23)c1 (stereo not given)	inactive	inactive	inactive	inactive	250 µg/mL (≈ 499 µM)	62.5 µg/mL (≈ 125 µM)	250 µg/mL (≈ 499 µM)	inactive	inactive	0.00399	inactive	inactive	inactive	inactive	inactive	250 µg/mL (≈ 499 µM)	inactive	inactive
